Assay results taken from PubChem BioAssay AID1963449 (Molecular Pharmacology Branch, DTP, NCI, 2024).
Several values for one entry are separate records, joined by “and”; a condition that tells them apart may be missing. Equal values may be shown once.

Tested on: 596521-263-R-J1-PDC complex spheroid growth
Assay: Anticancer human tumor 596521-263-R-J1-PDC patient-derived soft tissue sarcoma cell line growth inhibition [Asc]
Settings: for viability, T/C: stronger effect = lower value
Protocol: Multicellular complex tumor spheroid response to apoptosis pathway targeting inhibitors Alrizomadlin, Pelcitoclax, and Dasminapant in combination with a variety of drugs and investigational agents in selected tumor cell lines
The MDM2 inhibitor alrizomadlin, the Bcl-2/Bcl-xL inhibitor pelcitoclax, and the IAPs inhibitor dasminapant were evaluated both individually and in combination with standard of care and investigational anticancer small molecules within a complex spheroid model of solid tumors. . Complex spheroids include a stromal component modeled by human endothelial cells (HUVEC) and fibroblasts modeled by human mesenchymal stem cells (MSCs). The concentration ranges selected for each drug and investigational agent were based upon clinically achievable concentrations if the clinical Cmax of the agent was known.
Compounds. The drugs and investigational agents: alrizomadlin (APG-115; NSC831270), pelcitoclax (APG-1252; NSC835773), dasminapant (APG-1387;NSC834197), TAK-243 (NSC785004), copanlisib (NSC809693), olaparib (NSC753686), talazoparib (NSC767125), cobimetinib (NSC 768068), eltanexor (KPT-8602, NSC 794443), abemaciclib (NSC 768073), sotorasib (NSC818433), adagrasib (NSC 831453), MRTX-1133 (NSC 836407), Iadademestat (ORY1001, NSC 806812), and RMC-4630 (NSC839698), were obtained from the NCI Developmental Therapeutics Program Chemical Repository. The FDA-approved anticancer drug set is available from the Developmental Therapeutics Program at https://dtp.cancer.gov/organization/dscb/obtaining/available plates.htm. […] The stock solutions were prepared in dimethyl sulfoxide (DMSO, Sigma-Aldrich, St. Louis, MO, cat. D2650) at 800-fold the tested concentration and stored at -70 degrees C prior to their use. All drugs and investigational agents were tested over a range starting from a high concentration at or near the clinical Cmax and decreasing in half-log increments. If the clinical Cmax for an agent had not been determined, the highest concentration tested was 10 microM.
The patient-derived cancer (PDC) cell lines include five colon adenocarcinomas: 186277-243-T-J2-PDC, 616215-338-R-J1-PDC, 439559-082-T-J2-PDC, 463943-066-T-J2-PDC, and 519858-162-T-J1-PDC; three pancreatic carcinomas: 323965-272-R-J2-PDC, 521955-158-R6-J3-PDC, and 521955-158-R2-J5-PDC; two uterine sarcomas: 327498-152-R-J2-PDC and 993429-296-R-J1-PDC; two rhabdomyosarcomas: 755483-174-R-J1-PDC and 772245-204-R-J1-PDC; two soft tissue sarcomas: 126254-015-R-J1-PDC and 494315-158-R-J1-PDC; two malignant fibrous histiocytomas: 317291-083-R-J1-PDC and 596521-263-R-J1-PDC; two breast carcinomas: 171881-019-R-J1-PDC and 885512-296-R-J2-PDC; and one ovarian carcinoma: 6556581-035-R-J-PDC were obtained from the NCI PDMR, (https://pdmr.cancer.gov). The established cell lines HSSY-2 synovial sarcoma (RRID:CVCL 8719), SYO-1 synovial sarcoma (RRID:CVCL_7146), MPNST malignant peripheral neural sheath tumor were obtained from the Sloan Kettering Institute. The following established cell lines were purchased from the American Type Culture Collection (ATCC, Manassas, VA), Sor the received from the NCI repository:, PANC-1 pancreatic carcinoma (CRL-1469, RRID:CVCL_0480), OVCAR-5 ovarian carcinoma (RRID:CVCL_1628), OVCAR-8 ovarian carcinoma (RRID:CVCL_1629), , MCF-7 breast carcinoma (CRL-12584, RRID:CVCL_0031), MDA-MB-231 breast carcinoma (CRL-12532, RRID:CVCL_0062), NCI-H1876 small cell lung carcinoma (CRL-5902, RRID:CVCL_1503), NCI-H510A small cell lung carcinoma (HTB-184, RRID:CVCL_1565), NCI-H1417 (CRL-5869, RRID:CVCL_1469), and NCI-H196 small cell lung carcinoma (CRL-5823, RRID:CVCL_1509). Dr. Peter Houghton (Greehey Children's Cancer Research Institute, University of Texas Health Science Center, San Antonio, TX) provided Rh-18 rhabdomyosarcoma (RRID:CVCL_1659). Pooled donor human umbilical vein endothelial cells (HUVEC, Lonza, cat. CC-2519) and human mesenchymal stem cells (hMSC, Lonza, cat. PT-2501) were purchased from Lonza (Walkersville, MD).
Cell Culture. […]
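Further: spheroids exposed to compounds for 7 days.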

SMILES | IC50 (curve of compound) | viability, T/C (compound 0.0316 µM) | viability, T/C (compound 0.1 µM) | viability, T/C (compound 0.316 µM) | viability, T/C (compound 1 µM) | viability, T/C (compound 0.00316 µM) | viability, T/C (compound 0.01 µM) | further results
C=C(F)C(=O)N1CCN(c2nc(OCC3CCCN3C)nc3c2CCN(c2cccc4cccc(Cl)c24)C3)CC1CC#N (stereo unspecified) | 5270 nM and 4970 nM | 95.8% and 100% | 100% and 95.2% | 98.3% and 103% | 99.6% and 123% | – | – | viability, T/C (compound 3.16 µM): 89.5% and 80.2%; viability, T/C (compound 10 µM): 0.48% and 3.4%
CCN1C(C(=O)NC23CCC(C(=O)O)(CC2)CC3)C(c2cccc(Cl)c2F)C2(C(=O)Nc3cc(Cl)ccc32)C12CCCCC2 (stereo unspecified) | > 3000 nM | – | – | – | – | – | – | viability, T/C (compound 0.00949 µM): 103% [middle of 8 runs]; viability, T/C (compound 0.03 µM): 101% [middle of 8 runs]; viability, T/C (compound 0.0949 µM): 103% [middle of 8 runs]; viability, T/C (compound 0.3 µM): 105% [middle of 8 runs]; viability, T/C (compound 0.949 µM): 102% [middle of 8 runs]; viability, T/C (compound 3 µM): 95.7% [middle of 8 runs]; IC50 (compound alone, run of 11/07/2022): > 3000 nM
CNC(C)C(=O)NC1CN(S(=O)(=O)c2cccc(S(=O)(=O)N3CCC4CCC(C(=O)NC(c5ccccc5)c5ccccc5)N4C(=O)C(NC(=O)C(C)NC)C3)c2)CCC2CCC(C(=O)NC(c3ccccc3)c3ccccc3)N2C1=O (stereo unspecified) | > 1000 nM | 89.6% [middle of 6 runs] | 87.5% [middle of 6 runs] | – | 77.4% [middle of 6 runs] | – | – | –
Cc1nc(N2CCC3(CC2)COC(C)C3N)c(CO)nc1Sc1ccnc(N)c1Cl (stereo unspecified) | > 3000 nM | – | – | – | – | – | – | viability, T/C (compound 0.00949 µM): 92.9% and 104% and 105%; viability, T/C (compound 0.03 µM): 105% and 93.2% and 112%; viability, T/C (compound 0.0949 µM): 95.7% and 91.3% and 95.2%; viability, T/C (compound 0.3 µM): 96.7% and 100% and 87%; viability, T/C (compound 0.949 µM): 88.2% and 85.2% and 73.8%; viability, T/C (compound 3 µM): 64.9% and 62.4% and 62.7%
NC(=O)C(=Cn1cnc(-c2cc(C(F)(F)F)cc(C(F)(F)F)c2)n1)c1cncnc1 | – | – | – | – | – | – | – | viability, T/C (compound 0.000949 µM): 104% and 98.5% and 48.5%; viability, T/C (compound 0.003 µM): 91.6% and 94.9% and 49.6%; viability, T/C (compound 0.00949 µM): 87.5% and 83.8% and 46.9%; viability, T/C (compound 0.03 µM): 58.5% and 51.1% and 32.2%; viability, T/C (compound 0.0949 µM): 18.1% and 18.5% and 16.5%; viability, T/C (compound 0.3 µM): 11.2% and 10.3% and 10%
NC1CCC(NC2CC2c2ccccc2)CC1 (stereo unspecified) | > 100 nM | 99.2% and 85.7% | 88.1% and 89.4% | – | – | 90% and 91.5% | 95.4% and 94.3% | viability, T/C (compound 0.000316 µM): 92.5% and 90.7%; viability, T/C (compound 0.001 µM): 87% and 79.9%

The next lines start with results.

IC50 (curve of compound) | SMILES | viability, T/C (compound 0.0316 µM) | viability, T/C (compound 0.1 µM) | viability, T/C (compound 0.316 µM) | viability, T/C (compound 1 µM) | viability, T/C (compound 0.00316 µM) | viability, T/C (compound 0.01 µM) | further results
> 10000 nM | C=CC(=O)N1CCN(c2nc(=O)n(-c3c(C)ccnc3C(C)C)c3nc(-c4c(O)cccc4F)c(F)cc23)C(C)C1 (stereo unspecified) | 93.6% and 91.4% | 101% and 93.4% | 97.6% and 109% | 108% and 112% | – | – | viability, T/C (compound 3.16 µM): 96.7% and 107%; viability, T/C (compound 10 µM): 78% and 88.9%
> 1000 nM | CCN1CCN(Cc2ccc(Nc3ncc(F)c(-c4cc(F)c5nc(C)n(C(C)C)c5c4)n3)nc2)CC1 | 96.3% and 101% and 86.1% | 97.9% and 93.3% and 105% | 96.8% and 101% and 92% | 79.4% and 77.1% and 87.2% | 99.1% and 89.3% and 99.2% | 103% and 87.3% and 82% | –
254 nM and 188 nM | COc1c(OCCCN2CCOCC2)ccc2c3n(c(=NC(=O)c4cnc(N)nc4)nc12)CCN3 | 71.1% and 82.2% | 68% and 61.7% | 44.1% and 40% | 31.9% and 28.1% | 98.3% and 95.9% | 88% and 87.8% | –
> 100 nM | Cn1ncnc1[C@H]1c2n[nH]c(=O)c3cc(F)cc(c23)N[C@@H]1c1ccc(F)cc1 | 105% and 96.6% and 94.3% | 79.6% and 84.5% and 82.6% | – | – | 97.5% and 93.9% and 87.1% | 87.1% and 98% and 103% | viability, T/C (compound 0.000316 µM): 95.5% and 111% and 105%; viability, T/C (compound 0.001 µM): 101% and 97% and 98.5%
> 10000 nM | O=C(c1cc(Cc2n[nH]c(=O)c3ccccc23)ccc1F)N1CCN(C(=O)C2CC2)CC1 | 102% and 103% and 85.9% | 101% (2×) and 93.1% | 94.2% and 92.7% and 111% | 90.9% and 103% and 93.6% | – | – | viability, T/C (compound 3.16 µM): 89.6% and 92.4% and 71.7%; viability, T/C (compound 10 µM): 59.9% and 61.9% and 50.4%
314 nM and 867 nM and 412 nM | O=C(c1ccc(F)c(F)c1Nc1ccc(I)cc1F)N1CC(O)([C@@H]2CCCCN2)C1 | 98.4% and 88.8% and 92.9% | 75.9% and 77.3% and 84.2% | 50.1% and 56% and 54.9% | 34.9% and 49.8% and 34% | 107% and 99.7% and 89.7% | 95.2% and 94.7% and 92% | –
